Experimental data taken from patent publication US20050239656A1, “Pyridine compounds or salts thereof and herbicides containing the same” (priority 2002, published 2005).

Assays:
japanese bulrush = assay: Test Example 3: paddy pot test, application under submerged conditions; type: in vivo, Scirpus juncoides; conditions: submerged application at 0.5 leaf stage, visually observed 14 days after application, 0 = non-treated, 100 = complete kill
Method in brief: (§1)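 Paddy soil pots; seeds sown, lightly covered; flooded 0.5–1 cm in greenhouse; wapato tubers planted day 1–2; flood raised to 3–4 cm. Submerged pipette application at 0.5 leaf / primary leaf stage. Visual score day 14, 0–100%.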

rice (var. Nihonbare) = assay: Test Example 3: paddy pot test, transplanted rice; type: in vivo, Oryza sativa L.; conditions: applied 4th day after transplantation, visually observed 21st day after application, 0 = non-treated, 100 = complete kill
Method in brief: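 Visual crop-injury rating (0 = as untreated, 100 = complete kill, %) taken 21 days post-application. Treatment: formulated compound, water-diluted, pipetted into 3–4 cm flood water at a preset active-ingredient dose, 4 days after transplanting 2-leaf Nihonbare rice 3 cm deep in puddled paddy soil.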

barnyardgrass [1] = assay: Test Example 2: soil surface treatment, upland pot test; type: in vivo, Echinochloa crus-galli L.; conditions: observed 20th to 28th day
Method in brief: (§2)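 Pre-emergence: the soil surface was sprayed 1 day after sowing with wettable powder or emulsifiable concentrate diluted in water at 1,500 L/ha, at a predetermined active ingredient amount. Growth control was scored visually 20–28 days after treatment, 0 (untreated) to 100 (complete kill).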

wheat = assay: as above; type: in vivo, Triticum spp.; conditions: observed 20th to 28th day
Excerpt: Upland field soil was put into a 1/170,000 ha pot, and seed of various plants (barnyardgrass, crabgrass, green foxtail, redroot pigweed, prickly sida, velvetleaf, rice, wheat, corn, soybean) were sown. On the 1st day after the sowing, a wettable powder or emulsifiable concentrate having the compound of the present invention formulated in accordance with a usual formulation method, was weighed so that the active ingredient would be a predetermined amount, and diluted with water in an amount of 1,500 L/ha. The herbicide thus adjusted was applied by a small size sprayer for soil surface treatment. On the 20th to 28th days after the application of the herbicide, the growth of the respective plants was visually observed, and the herbicidal effects were evaluated by the growth controlling degrees (%) ranging from 0 (equivalent to the non-treated plot) to 100 (complete kill), whereby the results shown in Table 4, were obtained.

corn = assay: as above; type: in vivo, Zea mays L.; conditions: observed 20th to 28th day
Method in brief: as §2

velvetleaf = assay: as above; type: in vivo, Abutilon theophrasti MEDIC.; conditions: observed 20th to 28th day
Method in brief: as §2

soybean = assay: as above; type: in vivo, Glycine max Merr.; conditions: observed 20th to 28th day
Method in brief: as §2

redroot pigweed = assay: as above; type: in vivo, Amaranthus retroflexus L.; conditions: observed 20th to 28th day
Method in brief: as §2

prickly sida = assay: as above; type: in vivo, Sida spinosa L.; conditions: observed 20th to 28th day
Method in brief: as §2

green foxtail = assay: as above; type: in vivo, Setaria viridis L.; conditions: observed 20th to 28th day
Method in brief: as §2

barnyardgrass [2] = assay: Test Example 3: paddy pot test, application under submerged conditions; type: in vivo, Echinochloa crus-galli L.; conditions: submerged application at 0.5 leaf stage, visually observed 14 days after application, 0 = non-treated, 100 = complete kill
Method in brief: as §1

rice = assay: Test Example 2: soil surface treatment, upland pot test; type: in vivo, Oryza sativa L.; conditions: observed 20th to 28th day
Method in brief: as §2

crabgrass = assay: as above; type: in vivo, Digitaria sanguinalis L.; conditions: observed 20th to 28th day
Method in brief: as §2

Row | Structure (SMILES) | Growth controlling degree (%) Japanese bulrush (japanese bulrush; active ingredient 250 g/ha) [%] | Growth controlling degree (%) Rice (rice (var. Nihonbare); active ingredient 250 g/ha) [%] | Growth controlling degree (%) Barnyardgrass (barnyardgrass [1]; active ingredient 500 g/ha) [%] | Growth controlling degree (%) wheat (wheat; active ingredient 500 g/ha) [%] | Growth controlling degree (%) Corn (corn; active ingredient 500 g/ha) [%] | Growth controlling degree (%) Velvetleaf (velvetleaf; active ingredient 500 g/ha) [%] | Growth controlling degree (%) Soyabean (soybean; active ingredient 500 g/ha) [%] | Growth controlling degree (%) Redroot pigweed (redroot pigweed; active ingredient 500 g/ha) [%] | Growth controlling degree (%) Prickly sida (prickly sida; active ingredient 500 g/ha) [%] | Growth controlling degree (%) Green foxtail (green foxtail; active ingredient 500 g/ha) [%] | Growth controlling degree (%) Barnyardgrass (barnyardgrass [2]; active ingredient 250 g/ha) [%] | Growth controlling degree (%) Rice (rice; active ingredient 500 g/ha) [%] | Growth controlling degree (%) Crabgrass (crabgrass; active ingredient 500 g/ha) [%] | Growth controlling degree (%) Barnyardgrass (barnyardgrass [1]; active ingredient 250 g/ha) [%] | Growth controlling degree (%) wheat (wheat; active ingredient 250 g/ha) [%] | Growth controlling degree (%) Corn (corn; active ingredient 250 g/ha) [%] | Growth controlling degree (%) Velvetleaf (velvetleaf; active ingredient 250 g/ha) [%] | Growth controlling degree (%) Soyabean (soybean; active ingredient 250 g/ha) [%] | Growth controlling degree (%) Redroot pigweed (redroot pigweed; active ingredient 250 g/ha) [%] | Growth controlling degree (%) Prickly sida (prickly sida; active ingredient 250 g/ha) [%] | further results
1 | CC(C)C(Br)C(=O)N(C)C(c1cnccc1C(F)(F)F)C(C)C (stereo not drawn) [Compound I-197] | 98 | 0 | 100 | 50 | 20 | 50 | 10 | 90 | 70 | 100 | 100 | 40 | 100 | – | – | – | – | – | – | – | –
2 | CCC(Br)C(=O)N(C)C(c1cnccc1C(F)(F)F)C(C)C (stereo not drawn) [Compound I-202] | 98 | 10 | – | – | – | – | – | – | – | – | 98 | – | – | 100 | 40 | 50 | 40 | 35 | 80 | 70 | Growth controlling degree (%) Green foxtail (green foxtail; active ingredient 250 g/ha): 95%; Growth controlling degree (%) Rice (rice; active ingredient 250 g/ha): 60%; Growth controlling degree (%) Crabgrass (crabgrass; active ingredient 250 g/ha): 100%
3 | CC(C)C(c1cnccc1C(F)(F)F)N(C)C(=O)C(F)(F)F (stereo not drawn) [Compound I-209] | 100 | 35 | – | – | – | – | – | – | – | – | 98 | – | – | 100 | 70 | 50 | 60 | 50 | 60 | 70 | Growth controlling degree (%) Green foxtail (green foxtail; active ingredient 250 g/ha): 100%; Growth controlling degree (%) Rice (rice; active ingredient 250 g/ha): 70%; Growth controlling degree (%) Crabgrass (crabgrass; active ingredient 250 g/ha): 98%
4 | CCCOC(=O)N(C)C(c1cnccc1C(F)(F)F)C(C)C (stereo not drawn) [I-203] | 95 | 10 | – | – | – | – | – | – | – | – | 100 | – | – | 100 | 30 | 40 | 30 | 30 | 80 | 60 | Growth controlling degree (%) Green foxtail (green foxtail; active ingredient 250 g/ha): 98%; Growth controlling degree (%) Rice (rice; active ingredient 250 g/ha): 60%; Growth controlling degree (%) Crabgrass (crabgrass; active ingredient 250 g/ha): 100%
5 | CC(C)C(c1cnccc1C(F)(F)F)N(C)S(=O)(=O)C=Cc1ccccc1 (racemic) [I-135] | – | – | 80 | 10 | 0 | 30 | 0 | 20 | 50 | 70 | – | 20 | 70 | – | – | – | – | – | – | – | Growth controlling degree (%) Japanese bulrush (japanese bulrush; active ingredient 500 g/ha): 100%; Growth controlling degree (%) Rice (rice (var. Nihonbare); active ingredient 500 g/ha): 10%; Growth controlling degree (%) Barnyardgrass (barnyardgrass [2]; active ingredient 500 g/ha): 98%
6 | CC(C)C(c1cnccc1C(F)(F)F)N(C)C(=O)Cc1ccc(Br)c(F)c1 (racemic) [Compound I-129] | 90 | 0 | 98 | 30 | 30 | 10 | 10 | 40 | 70 | 100 | 100 | 30 | 98 | – | – | – | – | – | – | – | –
